One data set deals with PBMC. Nature of the data set: microdose-induced carboplatin-DNA monoadducts in patients. Type of data set: in vivo, human. The note with it: for 4 h adducts PBMC / 24 h adducts PBMC: microdose; for lowest DNA monoadduct level observed: first nineteen patients, microdose 1% of therapeutic dose. The protocol: Based upon the previous mouse studies that identified a minimal microdose for accurate AMS analysis of carboplatin monoadducts (1% of therapeutic carboplatin containing 50,000 DPM/gm of mouse body weight), the first in-human evaluation of microdose [^14C]carboplatin was conducted at this same equivalent formulation. The mouse radioactive dose (50,000 DPM/gm), adjusted for body surface area differences between mouse and humans, is equivalent to a dose of 1.0×10^7 DPM/kg of human body weight. The carboplatin dose for human chemotherapy is personalized to a patient's size and kidney function and is calculated using the Calvert formula with an AUC of 6 (Calvert, A. H., et al. “Carboplatin dosage: prospective evaluation of a simple formula based on renal function.” Journal of Clinical Oncology 7.11 (1989): 1748-1756). […] After blood collection, the BD Vacutainer CPT™ tubes were gently inverted several times to ensure mixing with heparin anticoagulant. The tubes were immediately placed on ice or stored at 4° C. and_then processed within 2 hours of collection to separate plasma and PBMC. For processing, the blood filled BD Vacutainer CPT™ tubes were centrifuged at room temperature in a horizontal rotor for 25 minutes at 1600×g. The top plasma layer was transferred to separate tubes and stored at or below −70° C. After most of the plasma was removed from the CPT tube, PBMC were transferred to another tube and washed three times with ice-cold phosphate-buffered solution (PBS). After pelleting the cells and removing the supernatant, the PBMC's were stored frozen at −80° C. until being processed to isolate DNA for determination of the carboplatin-DNA monoadduct frequency. Tumor samples were collected by biopsy or resection approximately 24 hours after administration of the [^14C]carboplatin microdose. These tumor specimens were placed in ice immediately after being obtained, washed three times with ice-cold PBS, and stored at or below −20° C. within 2 hours of collection. These frozen tumor samples were then processed at a later time to isolate DNA for determination of the carboplatin-DNA monoadduct frequency. To isolate DNA, tumor tissue was placed on ice in a sterile petri dish and minced with a sterile scalpel for approximately 30-90 sec per sample. Approximately 20-100 mg of tissue was then processed using the modified Wizard DNA isolation protocol as described previously.
Two lung and three bladder cancer patients were monitored post carboplatin therapeutic treatment to determine therapeutic outcome. Each patient was given a microdose of [^14C]carboplatin by IV injection. The microdose was 1% of therapeutic based upon Calvert calculation and formulated with [^14C]carboplatin at 1.0×10^7 DPM/kg of body weight. At time points of 2, 4, 8 and 24 hours, blood samples were taken from which PBMCs were isolated determination of carboplatin-DNA monoadduct frequency, and expressed as carboplatin-DNA monoadducts per 10^8 nucleotides (FIG. 13).
As we have shown in cell culture and mouse tumor xenograph experiments, the carboplatin-DNA monoadduct frequency is proportional to the dose and time integrated exposure to carboplatin. In this example we establish the useful range of carboplatin-DNA monoadduct frequencies in cancer patients receiving 1% of their therapeutic dose of carboplatin at a fixed time after microdose exposure. […] DNA from PBMC and tumor tissue was extracted and analyzed by AMS for carboplatin-DNA monoadduct frequency. […] Tumor carboplatin-DNA monoadduct frequencies ranged from 0.3 and 42.5 adducts per 10^8 nucleotides.

The nature of data set [1]: human plasma pharmacokinetics of [14C]carboplatin. It counts as in vivo. On the procedure: Two of the bladder cancer patients received two doses of [^14C]carboplatin, including the initial diagnostic microdose and a second microdose at the time of full therapeutic dose. This allowed us to compare the pharmacokinetics of carboplatin in plasma after both microdosing and therapeutic dosing (FIG. 11A). […] Therefore, microdosing and therapeutic dosing yield similar carboplatin pharmacokinetics in human patients.
The pharmacokinetics of carboplatin administered as a microdose was assessed in four patients (two with bladder cancer and two with NSLC) for the purpose of comparing interpatient variability and establishing the optimum time point for tumor biopsy sample acquisition.

A further data set has as its system Tumor Tissue. Kind of data set: microdose-induced carboplatin-DNA monoadducts in patients. Type of data set: in vivo, human. On the procedure:
Based upon the previous mouse studies that identified a minimal microdose for accurate AMS analysis of carboplatin monoadducts (1% of therapeutic carboplatin containing 50,000 DPM/gm of mouse body weight), the first in-human evaluation of microdose [^14C]carboplatin was conducted at this same equivalent formulation. The mouse radioactive dose (50,000 DPM/gm), adjusted for body surface area differences between mouse and humans, is equivalent to a dose of 1.0×10^7 DPM/kg of human body weight. The carboplatin dose for human chemotherapy is personalized to a patient's size and kidney function and is calculated using the Calvert formula with an AUC of 6 (Calvert, A. H., et al. “Carboplatin dosage: prospective evaluation of a simple formula based on renal function.” Journal of Clinical Oncology 7.11 (1989): 1748-1756). […] After blood collection, the BD Vacutainer CPT™ tubes were gently inverted several times to ensure mixing with heparin anticoagulant. The tubes were immediately placed on ice or stored at 4° C. and_then processed within 2 hours of collection to separate plasma and PBMC. For processing, the blood filled BD Vacutainer CPT™ tubes were centrifuged at room temperature in a horizontal rotor for 25 minutes at 1600×g. The top plasma layer was transferred to separate tubes and stored at or below −70° C. After most of the plasma was removed from the CPT tube, PBMC were transferred to another tube and washed three times with ice-cold phosphate-buffered solution (PBS). After pelleting the cells and removing the supernatant, the PBMC's were stored frozen at −80° C. until being processed to isolate DNA for determination of the carboplatin-DNA monoadduct frequency. […]
As we have shown in cell culture and mouse tumor xenograph experiments, the carboplatin-DNA monoadduct frequency is proportional to the dose and time integrated exposure to carboplatin. […] DNA from PBMC and tumor tissue was extracted and analyzed by AMS for carboplatin-DNA monoadduct frequency. […]

The next data set deals with BT 549. Kind of data set: MTT assay, carboplatin cytotoxicity. The following applies: 72 hours. Type of data set: cell-based, human. On the procedure: (§1) Six breast cancer cell lines were tested. […] The cell lines were purchased from ATCC, and cultured in the recommended media. IC50 values were determined for each cell line using the MTT assay (Henderson et al., International Journal of Cancer 2011) after incubating cells for 72 hours with different concentrations of carboplatin. [^14C] carboplatin (53 mCi/mmol) was purchased from the GE Healthcare (Waukesha, Wis.) and further purified at Moravek Biochemical (Brea, Calif.). Unlabeled carboplatin (USP Pharmaceutical Grade) was used to minimize the usage of radiocarbon and achieve the specific activities required for microdoses and therapeutic doses.
A general note: Tetrazolium assays rely on reduction of a dye to a coloured formazan, in cell work by metabolically active cells.

The next data set concerns T47D. Nature of the data set: MTT assay, carboplatin cytotoxicity. The note with it: 72 hours. Type of data set: cell-based, human. On the procedure:
as §1

In the next data set the test system is Hs 578T. Nature of the data set: MTT assay, carboplatin cytotoxicity. It counts as cell-based, human. The following applies: 72 hours. The protocol:
as §1

Another data set deals with MCF-7. Nature of the data set: MTT assay, carboplatin cytotoxicity. Type of data set: cell-based, human. The note with it: 72 hours. On the procedure: as §1
The subject of a further data set is MDA MB 468. Kind of data set: MTT assay, carboplatin cytotoxicity. Type of data set: cell-based, human. The following applies: 72 hours. On the procedure: as §1
Another data set deals with MDA MB 231. Nature of the data set: MTT assay, carboplatin cytotoxicity. Type of data set: cell-based, human. The following applies: 72 hours. On the procedure:
as §1

[2] abbreviates: Bladder cancer, individual patients.

Values joined by “and” are separate entries in the source; they are usually repeats but may differ in a detail not shown here. Equal entries are not always repeated.

The IC50 is the concentration that gives 50% inhibition. Low values mean higher potency, high ones lower potency.

With `N.N.O=C([O-])C1(C(=O)[O-])CCC1.[Pt+2]` [carboplatin], the “4 h adducts PBMC” value was 1.113 per 10^8 nt and 0.265 per 10^8 nt and 0.545 per 10^8 nt and 0.184 per 10^8 nt and 0.193 per 10^8 nt and 1.004 per 10^8 nt and 0.600 per 10^8 nt and 1.399 per 10^8 nt and 0.599 per 10^8 nt and 0.239 per 10^8 nt and 0.421 per 10^8 nt in the data set on PBMC (setting [2]); 0.861 per 10^8 nt in the data set on PBMC (Hodgkin patient); 0.447 per 10^8 nt and 0.662 per 10^8 nt and 0.386 per 10^8 nt and 0.587 per 10^8 nt and 0.234 per 10^8 nt and 2.214 per 10^8 nt with PBMC (NSCLC, individual patients). Moreover, the “24 h adducts PBMC” value in the data set with PBMC (setting [2]) is 0.443 per 10^8 nt and 0.081 per 10^8 nt and 0.930 per 10^8 nt and 0.154 per 10^8 nt and 0.283 per 10^8 nt and 0.968 per 10^8 nt and 0.499 per 10^8 nt and 0.485 per 10^8 nt and 0.329 per 10^8 nt and 0.978 per 10^8 nt; with PBMC (Hodgkin patient) it was 0.472 per 10^8 nt; in the data set with PBMC (NSCLC, individual patients), 0.837 per 10^8 nt and 1.3 per 10^8 nt and 0.454 per 10^8 nt and 0.942 per 10^8 nt and 0.342 per 10^8 nt and 0.232 per 10^8 nt. For the same compound, the “lowest DNA monoadduct level observed” value in the data set on PBMC was about 3.2 monoadducts per cell; in the data set on PBMC (1.0×10^7 DPM/kg), 0.05 adducts per 10^8 nucleotides. Further, in data set [1] (microdose, four patients), the plasma half-life result is reported as “a few hours”. In [1] (microdose, four patients), the “time to essential clearance from the blood” value was at most 24 h. In data set [1] (two bladder cancer patients, 24 h), the “difference in plasma elimination kinetics between therapeutic and microdoses” value was “less than 2 fold”. The “24 h adducts Tumor” value is 20.2 per 10^8 nt and 14.8 per 10^8 nt and 5.37 per 10^8 nt and 3.13 per 10^8 nt and 0.31 per 10^8 nt and 42.5 per 10^8 nt and 8.79 per 10^8 nt and 0.923 per 10^8 nt in the data set on Tumor Tissue (setting [2]); 4.58 per 10^8 nt in the data set on Tumor Tissue (Hodgkin patient); 0.87 per 10^8 nt and 0.66 per 10^8 nt and 1.3 per 10^8 nt in the data set with Tumor Tissue (NSCLC, individual patients). Also, the half-maximal inhibitory concentration (IC50) turned out to be 68 µM with BT 549; 250 µM in the data set with T47D; 44 µM in the data set on Hs 578T; 137 µM in the data set with MCF-7; 44 µM in the data set with MDA MB 468; 250 µM in the data set with MDA MB 231.

For the origin of these results see patent US20200010910A1, “Cytotoxic Chemotherapy-Based Predictive Assays for Acute Myeloid Leukemia” (The Regents of The University of California, priority 2017, published 2020).
